Assay results reported in US5602153A, “Method of using 1-arylheteroarylalkyl substituted-1H-1,2,4-triazole compounds for treatment of a giaucoma disorder” (G.D. Searle & Co., priority 1993, dated 1997).

Tested on: pressor response to AII
Experiment: Assay D: In Vivo Intragastric Pressor Assay Response for AII Antagonists of Examples #1 and #3
Parameters: species or system rat (male Sprague-Dawley)
Details: 3 mg/kg gavage
Experimental: Assay D: In Vivo Intragastric Pressor Assay Response for AII Antagonists of Examples #1 and #3
Male Sprague-Dawley rats weighing 225-300 grams were anesthetized with methohexital (30 mg/kg, i.p.) and catheters were implanted into the femoral artery and vein. The catheters were tunneled subcutaneously to exit dorsally, posterior to the head and between the scapulae. The catheters were filled with heparin (1000 units/ml of saline). The rats were returned to their cage and allowed regular rat chow and water ad libitum. After full recovery from surgery (3-4 days), rats were placed in Lucite holders and the arterial line was connected to a pressure transducer. Arterial pressure was recorded on a Gould polygraph (mmHg). Angiotensin II was administered as a 30 ng/kg bolus via the venous catheter delivered in a 50 μl volume with a 0.2 ml saline flush. The pressor response in mm Hg was measured by the difference from pre-injection arterial pressure to the maximum pressure achieved. The AII injection was repeated every 10 minutes until three consecutive injections yielded responses within 4 mmHg of each other. These three responses were then averaged and represented the control response to AII. The test compound was suspended in 0.5% methylcellulose in water and was administered by gavage. The volume administered was 2 ml/kg body weight. The standard dose was 3 mg/kg. […] The pressor response to AII was measured at each time point. The rats were then returned to their cage for future testing. A minimum of 3 days was allowed between tests. Percent inhibition was calculated for each time point following gavage by the following formula: [(Control Response-Response at time point)/Control Response]×100.

CCCCc1nc(CCCC)n(Cc2ccc(-c3ccccc3-c3nnn[nH]3)nc2)n1 [Example 3, 5-[2-[5-[(3,5-dibutyl-1H-1,2,4-triazol-1-yl)methyl]-2-pyridinyl]phenyl]-1H-tetrazole]
% Inhibition of Blood Pressure Elevation (Rat A, 0 min): 0%
% Inhibition of Blood Pressure Elevation (Rat A, 30 min): 64%
% Inhibition of Blood Pressure Elevation (Rat A, 45 min): 67%
% Inhibition of Blood Pressure Elevation (Rat A, 60 min): 52%
% Inhibition of Blood Pressure Elevation (Rat A, 75 min): 45%
% Inhibition of Blood Pressure Elevation (Rat A, 90 min): 60%
% Inhibition of Blood Pressure Elevation (Rat A, 120 min): 41%
% Inhibition of Blood Pressure Elevation (Rat A, 150 min): 38%
% Inhibition of Blood Pressure Elevation (Rat A, 180 min): 24%
% Inhibition of Blood Pressure Elevation (Rat B, 0 min): 0%
% Inhibition of Blood Pressure Elevation (Rat B, 30 min): 55%
% Inhibition of Blood Pressure Elevation (Rat B, 45 min): 71%
% Inhibition of Blood Pressure Elevation (Rat B, 60 min): 55%
% Inhibition of Blood Pressure Elevation (Rat B, 75 min): 53%
% Inhibition of Blood Pressure Elevation (Rat B, 90 min): 50%
% Inhibition of Blood Pressure Elevation (Rat B, 120 min): 50%
% Inhibition of Blood Pressure Elevation (Rat B, 150 min): 53%
% Inhibition of Blood Pressure Elevation (Rat B, 180 min): 40%
% Inhibition of Blood Pressure Elevation (Rat C, 0 min): 0%
% Inhibition of Blood Pressure Elevation (Rat C, 30 min): 15%
% Inhibition of Blood Pressure Elevation (Rat C, 45 min): 12%
% Inhibition of Blood Pressure Elevation (Rat C, 60 min): 46%
% Inhibition of Blood Pressure Elevation (Rat C, 75 min): 27%
% Inhibition of Blood Pressure Elevation (Rat C, 90 min): 46%
% Inhibition of Blood Pressure Elevation (Rat C, 120 min): 53%
% Inhibition of Blood Pressure Elevation (Rat C, 150 min): 50%
% Inhibition of Blood Pressure Elevation (Rat C, 180 min): 62%
% Inhibition of Blood Pressure Elevation (Rat D, 0 min): 0%
% Inhibition of Blood Pressure Elevation (Rat D, 30 min): 21%
% Inhibition of Blood Pressure Elevation (Rat D, 45 min): 14%
% Inhibition of Blood Pressure Elevation (Rat D, 60 min): 36%
% Inhibition of Blood Pressure Elevation (Rat D, 75 min): 36%
% Inhibition of Blood Pressure Elevation (Rat D, 90 min): 26%
% Inhibition of Blood Pressure Elevation (Rat D, 120 min): 34%
% Inhibition of Blood Pressure Elevation (Rat D, 150 min): 29%
% Inhibition of Blood Pressure Elevation (Rat D, 180 min): 3%
% Inhibition of Blood Pressure Elevation (Rat E, 0 min): 0%
% Inhibition of Blood Pressure Elevation (Rat E, 30 min): 52%
% Inhibition of Blood Pressure Elevation (Rat E, 45 min): 43%
% Inhibition of Blood Pressure Elevation (Rat E, 60 min): 38%
% Inhibition of Blood Pressure Elevation (Rat E, 75 min): 43%
% Inhibition of Blood Pressure Elevation (Rat E, 90 min): 29%
% Inhibition of Blood Pressure Elevation (Rat E, 120 min): 29%
% Inhibition of Blood Pressure Elevation (Rat E, 150 min): 16%
% Inhibition of Blood Pressure Elevation (Rat E, 180 min): 16%
% Inhibition of Blood Pressure Elevation (Rats A-E Mean ± SE, 0 min): 0%
% Inhibition of Blood Pressure Elevation (Rats A-E Mean ± SE, 30 min): 42 ± 10%
% Inhibition of Blood Pressure Elevation (Rats A-E Mean ± SE, 45 min): 41 ± 13%
% Inhibition of Blood Pressure Elevation (Rats A-E Mean ± SE, 60 min): 46 ± 4%
% Inhibition of Blood Pressure Elevation (Rats A-E Mean ± SE, 75 min): 41 ± 4%
% Inhibition of Blood Pressure Elevation (Rats A-E Mean ± SE, 90 min): 42 ± 6%
% Inhibition of Blood Pressure Elevation (Rats A-E Mean ± SE, 120 min): 41 ± 5%
% Inhibition of Blood Pressure Elevation (Rats A-E Mean ± SE, 150 min): 37 ± 7%
% Inhibition of Blood Pressure Elevation (Rats A-E Mean ± SE, 180 min): 29 ± 10%

CCCCc1nc(CCCC)n(Cc2ccc(-c3ccccc3-c3nnn[nH]3)cn2)n1 [Example 1, 5-[2-[6-[(3,5-dibutyl-1H-1,2,4-triazol-1-yl)methyl]-3-pyridinyl]phenyl]-1H-tetrazole]
% Inhibition of Blood Pressure Elevation (Rat A, 0 min): 0%
% Inhibition of Blood Pressure Elevation (Rat A, 30 min): 14%
% Inhibition of Blood Pressure Elevation (Rat A, 45 min): 20%
% Inhibition of Blood Pressure Elevation (Rat A, 60 min): 40%
% Inhibition of Blood Pressure Elevation (Rat A, 75 min): 33%
% Inhibition of Blood Pressure Elevation (Rat A, 90 min): 37%
% Inhibition of Blood Pressure Elevation (Rat A, 120 min): 37%
% Inhibition of Blood Pressure Elevation (Rat A, 150 min): 40%
% Inhibition of Blood Pressure Elevation (Rat A, 180 min): 33%
% Inhibition of Blood Pressure Elevation (Rat B, 0 min): 0%
% Inhibition of Blood Pressure Elevation (Rat B, 30 min): 11%
% Inhibition of Blood Pressure Elevation (Rat B, 45 min): 15%
% Inhibition of Blood Pressure Elevation (Rat B, 60 min): 26%
% Inhibition of Blood Pressure Elevation (Rat B, 75 min): 23%
% Inhibition of Blood Pressure Elevation (Rat B, 90 min): 21%
% Inhibition of Blood Pressure Elevation (Rat B, 120 min): 23%
% Inhibition of Blood Pressure Elevation (Rat B, 150 min): 23%
% Inhibition of Blood Pressure Elevation (Rat B, 180 min): 13%
% Inhibition of Blood Pressure Elevation (Rat C, 0 min): 0%
% Inhibition of Blood Pressure Elevation (Rat C, 30 min): 16%
% Inhibition of Blood Pressure Elevation (Rat C, 45 min): 6%
% Inhibition of Blood Pressure Elevation (Rat C, 60 min): 29%
% Inhibition of Blood Pressure Elevation (Rat C, 75 min): 2%
% Inhibition of Blood Pressure Elevation (Rat C, 90 min): 10%
% Inhibition of Blood Pressure Elevation (Rat C, 120 min): 16%
% Inhibition of Blood Pressure Elevation (Rat C, 150 min): -4%
% Inhibition of Blood Pressure Elevation (Rat C, 180 min): 10%
% Inhibition of Blood Pressure Elevation (Rats A-C Mean ± SE, 30 min): 14 ± 2%
% Inhibition of Blood Pressure Elevation (Rats A-C Mean ± SE, 45 min): 14 ± 4%
% Inhibition of Blood Pressure Elevation (Rats A-C Mean ± SE, 60 min): 31 ± 4%
% Inhibition of Blood Pressure Elevation (Rats A-C Mean ± SE, 75 min): 20 ± 9%
% Inhibition of Blood Pressure Elevation (Rats A-C Mean ± SE, 90 min): 23 ± 8%
% Inhibition of Blood Pressure Elevation (Rats A-C Mean ± SE, 120 min): 26 ± 6%
% Inhibition of Blood Pressure Elevation (Rats A-C Mean ± SE, 150 min): 20 ± 13%
% Inhibition of Blood Pressure Elevation (Rats A-C Mean ± SE, 180 min): 19 ± 7%
